According to ChEMBL document CHEMBL1250451, “Mechanistic insights into a Ca2+-dependent family of alpha-mannosidases in a human gut symbiont” (Nat Chem Biol, 2010):

Columns and labels:
Type in all cases: protein assay
[1] = target: T1, Alpha-1,2-mannosidase (BT_3990) (Bacteroides thetaiotaomicron) (UniProt Q8A0N1); test: Activity of Bacteroides thetaiotaomicron GH92 alpha-mannosidase 3990 assessed as recovery of enzyme activity at 1 mM in presence of 7 mM Co(2+) ions and in presence of 5 mM EGTA in 100 mM pH 7 MOPS buffer relative to enzyme activity in presence of calcium
T1 sequence (whole entry): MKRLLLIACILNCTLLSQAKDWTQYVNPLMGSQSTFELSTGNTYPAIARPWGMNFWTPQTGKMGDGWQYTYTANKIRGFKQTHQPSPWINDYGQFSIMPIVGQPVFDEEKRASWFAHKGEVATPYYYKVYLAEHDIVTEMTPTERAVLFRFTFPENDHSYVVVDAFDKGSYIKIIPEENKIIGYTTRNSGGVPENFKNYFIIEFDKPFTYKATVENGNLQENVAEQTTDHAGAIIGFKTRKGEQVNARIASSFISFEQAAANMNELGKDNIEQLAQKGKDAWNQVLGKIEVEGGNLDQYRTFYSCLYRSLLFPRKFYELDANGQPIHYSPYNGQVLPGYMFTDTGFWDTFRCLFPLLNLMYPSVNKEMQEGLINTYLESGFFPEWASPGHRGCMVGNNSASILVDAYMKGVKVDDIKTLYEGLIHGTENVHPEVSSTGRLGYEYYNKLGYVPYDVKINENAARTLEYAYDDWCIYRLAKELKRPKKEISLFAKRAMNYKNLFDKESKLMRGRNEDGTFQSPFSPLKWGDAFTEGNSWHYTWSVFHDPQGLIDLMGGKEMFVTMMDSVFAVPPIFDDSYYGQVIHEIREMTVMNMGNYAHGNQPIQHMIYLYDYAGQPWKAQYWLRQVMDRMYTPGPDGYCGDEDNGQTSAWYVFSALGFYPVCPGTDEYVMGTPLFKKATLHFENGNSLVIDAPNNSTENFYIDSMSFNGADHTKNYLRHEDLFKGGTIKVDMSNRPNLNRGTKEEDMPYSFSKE

[2] = target: T1, Alpha-1,2-mannosidase (BT_3990) (Bacteroides thetaiotaomicron); test: Activity of Bacteroides thetaiotaomicron GH92 alpha-mannosidase 3990 assessed as recovery of enzyme activity at 1 mM in presence of 7 mM Sc(3+) ions and in presence of 5 mM EGTA in 100 mM pH 7 MOPS buffer relative to enzyme activity in presence of calcium
[3] = target: T1, Alpha-1,2-mannosidase (BT_3990) (Bacteroides thetaiotaomicron); test: Activity of Bacteroides thetaiotaomicron GH92 alpha-mannosidase 3990 assessed as recovery of enzyme activity at 1 mM in presence of 7 mM Mn(2+) ions and in presence of 5 mM EGTA in 100 mM pH 7 MOPS buffer relative to enzyme activity in presence of calcium
[4] = target: T2, Alpha-1,2-mannosidase (BT_2199) (Bacteroides thetaiotaomicron) (UniProt Q8A5N9); test: Activity of Bacteroides thetaiotaomicron GH92 alpha-mannosidase 2199 assessed as recovery of enzyme activity at 1 mM in presence of 7 mM Sc(3+) ions and in presence of 5 mM EGTA in 100 mM pH 7 MOPS buffer relative to enzyme activity in presence of calcium
T2 sequence (whole entry): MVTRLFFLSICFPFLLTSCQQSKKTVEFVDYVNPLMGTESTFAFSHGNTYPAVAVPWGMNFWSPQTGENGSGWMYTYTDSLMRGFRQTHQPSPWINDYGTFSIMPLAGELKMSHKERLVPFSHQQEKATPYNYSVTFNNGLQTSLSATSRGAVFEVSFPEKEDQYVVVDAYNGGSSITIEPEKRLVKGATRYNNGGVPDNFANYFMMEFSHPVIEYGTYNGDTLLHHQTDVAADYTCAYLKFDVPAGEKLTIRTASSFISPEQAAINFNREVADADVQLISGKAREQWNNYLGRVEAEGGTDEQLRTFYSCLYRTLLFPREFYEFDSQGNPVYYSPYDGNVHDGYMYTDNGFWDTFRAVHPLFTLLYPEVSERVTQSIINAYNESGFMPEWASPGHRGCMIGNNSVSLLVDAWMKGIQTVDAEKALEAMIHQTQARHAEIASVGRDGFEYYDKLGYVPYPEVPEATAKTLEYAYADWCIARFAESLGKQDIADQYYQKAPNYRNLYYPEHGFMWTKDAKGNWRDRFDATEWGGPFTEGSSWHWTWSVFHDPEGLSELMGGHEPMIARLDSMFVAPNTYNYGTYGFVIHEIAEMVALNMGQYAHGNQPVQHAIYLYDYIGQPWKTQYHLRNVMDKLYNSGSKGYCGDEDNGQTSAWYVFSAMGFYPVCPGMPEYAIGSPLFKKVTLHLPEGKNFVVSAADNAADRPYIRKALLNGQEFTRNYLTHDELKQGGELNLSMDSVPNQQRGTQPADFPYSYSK

[5] = target: T2, Alpha-1,2-mannosidase (BT_2199) (Bacteroides thetaiotaomicron); test: Activity of Bacteroides thetaiotaomicron GH92 alpha-mannosidase 2199 assessed as recovery of enzyme activity at 1 mM in presence of 7 mM Mn(2+) ions and in presence of 5 mM EGTA in 100 mM pH 7 MOPS buffer relative to enzyme activity in presence of calcium
[6] = target: T2, Alpha-1,2-mannosidase (BT_2199) (Bacteroides thetaiotaomicron); test: Activity of Bacteroides thetaiotaomicron GH92 alpha-mannosidase 2199 assessed as recovery of enzyme activity at 1 mM in presence of 7 mM V(3+) ions and in presence of 5 mM EGTA in 100 mM pH 7 MOPS buffer relative to enzyme activity in presence of calcium
[7] = target: T1, Alpha-1,2-mannosidase (BT_3990) (Bacteroides thetaiotaomicron); test: Activity of Bacteroides thetaiotaomicron GH92 alpha-mannosidase 3990 assessed as recovery of enzyme activity at 1 mM in presence of 7 mM Sr(2+) ions and in presence of 5 mM EDTA in 100 mM pH 7 MOPS buffer relative to enzyme activity in presence of calcium
[8] = target: T1, Alpha-1,2-mannosidase (BT_3990) (Bacteroides thetaiotaomicron); test: Activity of Bacteroides thetaiotaomicron GH92 alpha-mannosidase 3990 assessed as recovery of enzyme activity at 1 mM in presence of 7 mM Co(2+) ions and in presence of 5 mM EDTA in 100 mM pH 7 MOPS buffer relative to enzyme activity in presence of calcium
[9] = target: T2, Alpha-1,2-mannosidase (BT_2199) (Bacteroides thetaiotaomicron); test: Activity of Bacteroides thetaiotaomicron GH92 alpha-mannosidase 2199 assessed as recovery of enzyme activity at 1 mM in presence of 7 mM Sr(2+) ions and in presence of 5 mM EGTA in 100 mM pH 7 MOPS buffer relative to enzyme activity in presence of calcium
[10] = target: T1, Alpha-1,2-mannosidase (BT_3990) (Bacteroides thetaiotaomicron); test: Activity of Bacteroides thetaiotaomicron GH92 alpha-mannosidase 3990 assessed as recovery of enzyme activity at 1 mM in absence of metal and in presence of 5 mM EGTA in 100 mM pH 7 MOPS buffer relative to enzyme activity in presence of calcium
[11] = target: T2, Alpha-1,2-mannosidase (BT_2199) (Bacteroides thetaiotaomicron); test: Activity of Bacteroides thetaiotaomicron GH92 alpha-mannosidase 2199 assessed as recovery of enzyme activity at 1 mM relative to enzyme activity in presence of calcium
[12] = target: T1, Alpha-1,2-mannosidase (BT_3990) (Bacteroides thetaiotaomicron); test: Activity of Bacteroides thetaiotaomicron GH92 alpha-mannosidase 3990 assessed as recovery of enzyme activity at 1 mM relative to enzyme activity in presence of calcium

Activity [1]	Activity [2]	Activity [3]	Activity [4]	Activity [5]	Activity [6]	Activity [7]	Activity [8]	Activity [9]	Activity [10]	Activity [11]	Activity [12]	Compound
11%	0%	6%	0%	6%	0%	14%	12%	30%	0%	–	–	O=[N+]([O-])c1ccc(O[C@H]2O[C@H](CO)[C@@H](O)[C@H](O)[C@@H]2O)cc1
–	–	–	–	–	–	–	–	–	–	63%	65%	OC[C@H]1O[C@H](OC[C@H]2O[C@H](O)[C@@H](O)[C@@H](O)[C@@H]2O)[C@@H](O)[C@@H](O)[C@@H]1O
